# In patent publication US6939890B2, “sPLA2 inhibitors” (Eli Lilly and Company, priority 1999, dated 2005):
# Where a name gives a salt, the structure may show the parent alone.
# Key:
# [1] = target: T1, recombinant human secreted phospholipase A2 (Homo sapiens, UniProt P14555); test: chromogenic assay for inhibitors of recombinant human secreted phospholipase A2 (diheptanoyl thio-PC/DTNB, 96 well microtiter plates); type: biochemical; details: included in the table for purposes of comparison only
# T1 sequence (P14555 21-144): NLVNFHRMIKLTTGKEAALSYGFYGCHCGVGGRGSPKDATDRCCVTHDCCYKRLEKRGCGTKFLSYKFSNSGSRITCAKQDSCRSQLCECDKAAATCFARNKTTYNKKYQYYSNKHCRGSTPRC
# From the text: The following chromogenic assay procedure was used to identify and evaluate inhibitors of recombinant human secreted phospholipase A2. The assay described herein has been adapted for high volume screening using 96 well microtiter plates. A general description of this assay method is found in the article, “Analysis of Human Synovial Fluid Phospholipase A2 on Short Chain Phosphatidylcholine-Mixed Micelles: Development of a Spectrophotometric Assay Suitable for a Microtiterplate Reader”, by Laure J. Reynolds, Lori L. Hughes, and Edward A Dennis, Analytical Biochemistry, 204, pp. 190-197, 1992 (the disclosure of which is incorporated herein by reference): […]
# A measured volume of racemic dipheptanoyl thio PC supplied in chloroform at a concentration of 100 mg/ml is taken to dryness and redissolved in 10 millimolar […]
# • 1. […] Read absorbance of wells at 405 nanometers with an automatic plate reader.
# All compounds were tested in triplicate. […] Compounds initially found to be active were reassayed to confirm their activity and, if sufficiently active, IC50 values were determined. […] In all cases, % inhibition measured at 405 nanometers generated by enzyme reactions containing inhibitors relative to the uninhibited control reactions was determined. […] IC50 were determined by plotting log concentration versus inhibition values in the range from 10-90% inhibition.
SMILES,melting point,inhibiting sPLA2 (statement in words) [1]
"CCc1c(C(=O)C(N)=O)c2c(OCC(=O)NOC(C)(C)C)cccc2n1Cc1ccccc1 (as salt: hydrochloride) [Compound 2Ah, 2-[[3-(Aminooxoacetyl)-2-ethyl-1-(phenylmethyl)-1H-indol-4-yl]oxy]-N-(tert-butyloxy)acetamide]",203 to 205 °C,–
"CCc1c(C(=O)C(N)=O)c2c(OCC(=O)N(C)OCc3ccccc3)cccc2n1Cc1ccccc1 [Compound 2Ak, 2-[[3-(Aminooxoacetyl)-2-ethyl-1-(phenylmethyl)-1H-indol-4-yl]oxy]-N-(methyl)-N-(phenylmethyloxy)acetamide]",186.5 to 188.5 °C,–
"CCc1c(C(=O)C(N)=O)c2c(OCC(=O)NOC)cccc2n1Cc1ccccc1 [Compound 2Ab, 2-[[3-(Aminooxoacetyl)-2-ethyl-1-(phenylmethyl)-1H-indol-4-yl]oxy]-N-(methyloxy)acetamide]",228 °C (dec.),–
"CCc1c(C(=O)C(N)=O)c2c(OCC(=O)N(C)O)cccc2n1Cc1ccccc1 (as salt: hydrochloride) [Compound 2Ad, 2-[[3-(Aminooxoacetyl)-2-ethyl-1-(phenylmethyl)-1H-indol-4-yl]oxy]-N-(hydroxy)-N-(methyl)acetamide]",217 °C (dec.),–
"CCONC(=O)COc1cccc2c1c(C(=O)C(N)=O)c(CC)n2Cc1ccccc1 (as salt: hydrochloride) [Compound 2Ae, 2-[[3-(Aminooxoacetyl)-2-ethyl-1-(phenylmethyl)-1H-indol-4-yl]oxy]-N-(ethyloxy)acetamide]",176 to 178 °C,–
"C=CCONC(=O)COc1cccc2c1c(C(=O)C(N)=O)c(CC)n2Cc1ccccc1 (as salt: hydrochloride) [Compound 2Af, 2-[[3-(Aminooxoacetyl)-2-ethyl-1-(phenylmethyl)-1H-indol-4-yl]oxy]-N-(2-propenyloxy)acetamide]",175 to 177 °C,–
"CCc1c(C(=O)C(N)=O)c2c(OCC(=O)N(O)C(C)C)cccc2n1Cc1ccccc1 (as salt: hydrochloride) [Compound 2Ag, 2-[[3-(Aminooxoacetyl)-2-ethyl-1-(phenylmethyl)-1H-indol-4-yl]oxy]-N-(hydroxy)-N-(2-propyl)acetamide]",202 °C (dec.),–
"CCc1c(C(=O)C(N)=O)c2c(OCC(=O)NOCc3ccccc3)cccc2n1Cc1ccccc1 (as salt: hydrochloride) [Compound 2Aj, 2-[[3-(Aminooxoacetyl)-2-ethyl-1-(phenylmethyl)-1H-indol-4-yl]oxy]-N-(phenylmethyloxy)acetamide]",167 to 169 °C,–
"CCc1c(C(=O)C(N)=O)c2c(OCC(=O)N(C)OC)cccc2n1Cc1ccccc1 (as salt: hydrochloride) [Compound 2Ac, 2-[[3-(Aminooxoacetyl)-2-ethyl-1-(phenylmethyl)-1H-indol-4-yl]oxy]-N-(methyl)-N-(methyloxy)acetamide]",168 to 170 °C,–
"CCc1c(C(=O)C(N)=O)c2c(OCC(=O)OC)cccc2n1Cc1ccccc1 [1 (SM), [[3-(2-Amino-1,2-dioxoethyl)-2-ethyl-1-(phenylmethyl)-1H-indol-4-yl]oxy]acetic acid methyl ester]",–,highly active
"CCc1c(CC(N)=O)c2c(OCC(=O)NO)cccc2n1Cc1ccccc1 [Compound 2Ba, 2-[[3-(2-Amino-2-oxoethyl)-2-ethyl-1-(phenylnmethyl)-1H-indol-4-yl]oxy]-N-(hydroxy)acetamide]",187 to 189 °C,–
"CCc1c(C(=O)C(N)=O)c2c(OCC(=O)N(C)Oc3ccccc3)cccc2n1Cc1ccccc1 [Compound 2Am, 2-[[3-(Aminooxoacetyl)-2-ethyl-1-(phenylmethyl)-1H-indol-4-yl]oxy]-N-(methyl)-N-(phenyloxy)acetamide]",146 to 147.5 °C,–
"CCc1c(C(=O)C(N)=O)c2c(OCC(=O)NOc3ccccc3)cccc2n1Cc1ccccc1 (as salt: hydrochloride) [Compound 2Al, 2-[[3-(Aminooxoacetyl)-2-ethyl-1-(phenylmethyl)-1H-indol-4-yl]oxy]-N-(phenyloxy)acetamide]",205 °C (dec.),–
"CCc1c(C(=O)C(N)=O)c2c(OCC(=O)N(O)C3CCCCC3)cccc2n1Cc1ccccc1 (as salt: hydrochloride) [Compound 2An, 2-[[3-(Aminooxoacetyl)-2-ethyl-1-(phenylmethyl)-1H-indol-4-yl]oxy]-N-(cyclohexyl)-N-(hydroxy)acetamide]",210 °C (dec.),–
